These are literature values, as cited in patent US20230345944A1, “Purified and Enhanced Hydrogen Peroxide Disinfecting Solution for the Rapid Inactivation of COVID-19 and Other Pathogens” (Alira Health Boston LLC, priority 2021, published 2023).

The data set relates to bacteria. The note with it: hydrogen peroxide on its own.

`OO` [hydrogen peroxide]: the “minimal inhibitory concentration (MIC)” value is listed as “about 1 mM”.
